Reference: patent US9957264B2 (Merck Sharp & Dohme Corp., priority 2013, dated 2018)

Columns and labels:
[1] = biological target: JAK2 (recombinant purified GST-tagged catalytic domain) (Homo sapiens (Human), UniProt O60674); assay: Jak Biochemical HTRF Assay (JAK2); details: [ATP] 8.5 μM
[2] = biological target: JAK1 (recombinant purified GST-tagged catalytic domain) (Homo sapiens (Human), UniProt P23458); assay: Jak Biochemical HTRF Assay (JAK1); details: [ATP] 31.8 μM
In short: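 GST-tagged human catalytic domains of JAK1 or JAK2 phosphorylated a biotinylated peptide substrate for 120 min at room temperature after ATP addition. Reaction quenched with EDTA stop buffer containing streptavidin-Dylight 650 and Eu-pY20 antibody; HTRF 665/615 nm ratio normalized to untreated controls, IC50 from 4-parameter fit.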

JAK1 (recombinant purified GST-tagged catalytic domain), sequence (P23458 875-1153): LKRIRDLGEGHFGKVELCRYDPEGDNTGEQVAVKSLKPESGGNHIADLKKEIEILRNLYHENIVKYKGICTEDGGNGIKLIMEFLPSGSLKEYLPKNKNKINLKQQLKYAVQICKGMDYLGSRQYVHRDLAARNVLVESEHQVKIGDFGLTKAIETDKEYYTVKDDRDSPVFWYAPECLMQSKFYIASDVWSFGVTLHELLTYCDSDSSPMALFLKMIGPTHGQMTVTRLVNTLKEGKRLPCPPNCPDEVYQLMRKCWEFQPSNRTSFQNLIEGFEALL
JAK2 (recombinant purified GST-tagged catalytic domain), sequence (O60674 849-1124): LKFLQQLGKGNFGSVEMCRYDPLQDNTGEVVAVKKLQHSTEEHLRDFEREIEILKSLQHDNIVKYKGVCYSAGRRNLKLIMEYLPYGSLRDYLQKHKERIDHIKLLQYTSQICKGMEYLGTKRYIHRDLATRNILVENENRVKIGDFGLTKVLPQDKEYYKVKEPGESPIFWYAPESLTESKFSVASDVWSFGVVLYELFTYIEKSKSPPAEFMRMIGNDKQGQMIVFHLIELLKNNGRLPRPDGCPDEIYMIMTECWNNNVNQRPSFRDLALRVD

Row | SMILES | IC50 [1] [nM] | IC50 [2] [nM]
1 | CC(C)(C)OC(=O)[C@@H]1CC[C@@](CC#N)(n2nc(Nc3ccc(C4(C(F)(F)F)CCCCN4)cc3)c3c(=O)[nH]ccc32)CO1 (single isomer, unassigned) [Example 5-287, (2S,5S)-tert-butyl 5-(cyanomethyl)-5-(4-oxo-3-((4-((S or R)-2-(trifluoromethyl)piperidin-2-yl)phenyl)amino)-4,5-dihydro-1H-pyrazolo[4,3-c]pyridin-1-yl)tetrahydro-2H-pyran-2-carboxylate] | 0.35 | 0.25
2 | N#CCC1(n2nc(Nc3ccc([C@@H](O)C(F)(F)F)cc3)c3c(=O)[nH]ccc32)CCN(c2cc(C(F)(F)F)ccn2)CC1 (single isomer, unassigned) [Example 16-2, (R or S)-2-(4-(4-oxo-3-(4-(2,2,2-trifluoro-1-hydroxyethyl)phenylamino)-4,5-dihydropyrazolo[4,3-c]pyridin-1-yl)-1-(4-(trifluoromethyl)pyridin-2-yl)piperidin-4-yl)acetonitrile] | 4.81 | 1.14
3 | N#CCC1(n2nc(Nc3ccc([C@H](O)C(F)(F)F)cc3)c3c(=O)[nH]ccc32)CCN(c2cc(C(F)(F)F)ccn2)CC1 (single isomer, unassigned) [Example 16-3, (R or S)-2-(4-(4-Oxo-3-(4-(2,2,2-trifluoro-1-hydroxyethyl)phenylamino)-4,5-dihydropyrazolo[4,3-c]pyridin-1-yl)-1-(4-(trifluoromethyl)pyridin-2-yl)piperidin-4-yl)acetonitrile] | 3.82 | 1.15
4 | N#CCC1(n2nc(Nc3ccc(C(F)(F)F)cc3)c3c(=O)[nH]ccc32)CCC(N2CC(F)C2)CC1 (single isomer, unassigned) [Example 18-1, 2-(4-(3-fluoroazetidin-1-yl)-1-(4-oxo-3-((4-(trifluoromethyl)phenyl)amino)-4,5-dihydro-1H-pyrazolo[4,3-c]pyridin-1-yl)cyclohexyl)acetonitrile] | 0.94 | 0.26
5 | N#CCC1(n2nc(Nc3ccc(C(F)(F)F)cc3)c3c(=O)[nH]ccc32)CCC(N2CC(F)C2)CC1 (single isomer, unassigned) [Example 18-2, 2-(4-(3-fluoroazetidin-1-yl)-1-(4-oxo-3-((4-(trifluoromethyl)phenyl)amino)-4,5-dihydro-1H-pyrazolo[4,3-c]pyridin-1-yl)cyclohexyl)acetonitrile] | 64 | 6.8
6 | Cc1cc(Nc2nn([C@]3(CC#N)CC[C@@H](C(=O)OC(C)(C)C)OC3)c3cc[nH]c(=O)c23)ccc1C(=O)N1CCOCC1C (single isomer, unassigned) [Example 20-8, (2S,5S)-tert-butyl 5-(cyanomethyl)-5-(3-((3-methyl-4-((S or R)-3-methylmorpholine-4-carbonyl)phenyl)amino)-4-oxo-4,5-dihydro-1H-pyrazolo[4,3-c]pyridin-1-yl)tetrahydro-2H-pyran-2-carboxylate] | 0.16 | 0.15
7 | Cc1cc(Nc2nn([C@]3(CC#N)CC[C@@H](C(=O)OC(C)(C)C)OC3)c3cc[nH]c(=O)c23)ccc1C(=O)N1CCOCC1C (single isomer, unassigned) [Example 20-9, (2S,5S)-tert-butyl 5-(cyanomethyl)-5-(3-((3-methyl-4-((S or R)-3-methylmorpholine-4-carbonyl)phenyl)amino)-4-oxo-4,5-dihydro-1H-pyrazolo[4,3-c]pyridin-1-yl)tetrahydro-2H-pyran-2-carboxylate] | 0.17 | 0.14
8 | Cc1cc(Nc2nn([C@]3(CC#N)CC[C@@H](C(=O)OC(C)(C)C)OC3)c3cc[nH]c(=O)c23)ccc1C(=O)N1CCOC(C)C1 (single isomer, unassigned) [Example 20-10, (2S,5S)-tert-butyl 5-(cyanomethyl)-5-(3-((3-methyl-4-((S or R)-2-methylmorpholine-4-carbonyl)phenyl)amino)-4-oxo-4,5-dihydro-1H-pyrazolo[4,3-c]pyridin-1-yl)tetrahydro-2H-pyran-2-carboxylate] | 0.31 | 0.21
9 | Cc1cc(Nc2nn([C@]3(CC#N)CC[C@@H](C(=O)OC(C)(C)C)OC3)c3cc[nH]c(=O)c23)ccc1C(=O)N1CCOC(C)C1 (single isomer, unassigned) [Example 20-11, (2S,5S)-tert-butyl 5-(cyanomethyl)-5-(3-((3-methyl-4-((S or R)-2-methylmorpholine-4-carbonyl)phenyl)amino)-4-oxo-4,5-dihydro-1H-pyrazolo[4,3-c]pyridin-1-yl)tetrahydro-2H-pyran-2-carboxylate] | 0.35 | 0.23
10 | Cc1cc(Nc2nn([C@]3(CC#N)CC[C@@H](C(=O)OC(C)(C)C)OC3)c3cc[nH]c(=O)c23)ccc1C(=O)N1CC(C)OC(C)C1 (single isomer, unassigned) [Example 20-12, (2S,5S)-tert-butyl 5-(cyanomethyl)-5-(3-((4-((2S,6S or 2R,6R)-2,6-dimethylmorpholine-4-carbonyl)-3-methylphenyl)amino)-4-oxo-4,5-dihydro-1H-pyrazolo[4,3-c]pyridin-1-yl)tetrahydro-2H-pyran-2-carboxylate] | 0.45 | 0.25
11 | Cc1cc(Nc2nn([C@]3(CC#N)CC[C@@H](C(=O)OC(C)(C)C)OC3)c3cc[nH]c(=O)c23)ccc1C(=O)N1CC(C)OC(C)C1 (single isomer, unassigned) [Example 20-13, (2S,5S)-tert-butyl 5-(cyanomethyl)-5-(3-((4-((2S,6S or 2R,6R)-2,6-dimethylmorpholine-4-carbonyl)-3-methylphenyl)amino)-4-oxo-4,5-dihydro-1H-pyrazolo[4,3-c]pyridin-1-yl)tetrahydro-2H-pyran-2-carboxylate] | 0.26 | 0.22
12 | CO[C@H](c1ccc(Nc2nn([C@]3(CC#N)CC[C@@H](C(=O)OC(C)(C)C)OC3)c3cc[nH]c(=O)c23)cc1)C(F)(F)F (single isomer, unassigned) [Example 21-7, (2S,5S)-tert-butyl 5-(cyanomethyl)-5-(4-oxo-3-((4-((R or S)-2,2,2-trifluoro-1-methoxyethyl)phenyl)amino)-4,5-dihydro-1H-pyrazolo[4,3-c]pyridin-1-yl)tetrahydro-2H-pyran-2-carboxylate] | 0.9 | 0.41
13 | CO[C@@H](c1ccc(Nc2nn([C@]3(CC#N)CC[C@@H](C(=O)OC(C)(C)C)OC3)c3cc[nH]c(=O)c23)cc1)C(F)(F)F (single isomer, unassigned) [Example 21-8, (2S,5S)-tert-butyl 5-(cyanomethyl)-5-(4-oxo-3-((4-((S or R)-2,2,2-trifluoro-1-methoxyethyl)phenyl)amino)-4,5-dihydro-1H-pyrazolo[4,3-c]pyridin-1-yl)tetrahydro-2H-pyran-2-carboxylate] | 1.03 | 0.38
14 | CO[C@H](c1ccc(Nc2nn(C3(CC#N)CCN(C(=O)OC(C)(C)C)CC3)c3cc[nH]c(=O)c23)cc1)C(F)(F)F (single isomer, unassigned) [Example 21-9, tert-butyl 4-(cyanomethyl)-4-[4-oxo-3-({4-[(1R or 1S)-2,2,2-trifluoro-1-methoxyethyl]phenyl}amino)-4,5-dihydro-1H-pyrazolo[4,3-c]pyridin-1-yl]piperidine-1-carboxylate] | 1.96 | 1.11
15 | CO[C@@H](c1ccc(Nc2nn(C3(CC#N)CCN(C(=O)OC(C)(C)C)CC3)c3cc[nH]c(=O)c23)cc1)C(F)(F)F (single isomer, unassigned) [Example 21-10, tert-butyl 4-(cyanomethyl)-4-[4-oxo-3-({4-[(1S or 1R)-2,2,2-trifluoro-1-methoxyethyl]phenyl}amino)-4,5-dihydro-1H-pyrazolo[4,3-c]pyridin-1-yl]piperidine-1-carboxylate] | 1.95 | 0.97
16 | CC(C)(C)OC(=O)N1CCC(CC#N)(n2nc(Nc3ccc([C@]4(C(F)(F)F)CCCCN4)cc3)c3c(=O)[nH]ccc32)CC1 (single isomer, unassigned) [Example 21-16, (S or R)-tert-butyl 4-(cyanomethyl)-4-(4-oxo-3-(4-(2-(trifluoromethyl)piperidin-2-yl)phenylamino)-4,5-dihydropyrazolo[4,3-c]pyridin-1-yl)piperidine-1-carboxylate] | 0.64 | 0.71
17 | CC(C)(C)OC(=O)N1CCC(CC#N)(n2nc(Nc3ccc([C@@]4(C(F)(F)F)CCCCN4)cc3)c3c(=O)[nH]ccc32)CC1 (single isomer, unassigned) [Example 21-17, (R or S)-tert-butyl 4-(cyanomethyl)-4-(4-oxo-3-(4-(2-(trifluoromethyl)piperidin-2-yl)phenylamino)-4,5-dihydropyrazolo[4,3-c]pyridin-1-yl)piperidine-1-carboxylate] | 0.58 | 0.63
18 | CC(C)(C)OC(=O)N1CCC(CC#N)(n2nc(Nc3ccc([C@@]4(C(F)(F)F)CCCN4)cc3)c3c(=O)[nH]ccc32)CC1 (single isomer, unassigned) [Example 21-18, (R or S)-tert-butyl 4-(cyanomethyl)-4-(4-oxo-3-(4-(2-(trifluoromethyl)pyrrolidin-2-yl)phenylamino)-4,5-dihydropyrazolo[4,3-c]pyridin-1-yl)piperidine-1-carboxylate] | 0.5 | 0.55
19 | CC(C)(C)OC(=O)N1CCC(CC#N)(n2nc(Nc3ccc([C@]4(C(F)(F)F)CCCN4)cc3)c3c(=O)[nH]ccc32)CC1 (single isomer, unassigned) [Example 21-19, (S or R)-tert-butyl 4-(cyanomethyl)-4-(4-oxo-3-(4-(2-(trifluoromethyl)pyrrolidin-2-yl)phenylamino)-4,5-dihydropyrazolo[4,3-c]pyridin-1-yl)piperidine-1-carboxylate] | 0.5 | 0.45
